# Data from the Kinase Knowledgebase extract (Sharma et al. 2016).
# Target: CDK2 (human) (UniProt P24941)
# Assay: Enzyme Assay
row,IC50 [nM],SMILES
1,< 500,CCOC(=O)c1cc(-c2csc(-c3ccnc(CC)c3)n2)c(=O)[nH]c1C
2,< 500,Cc1[nH]c(=O)c(-c2csc(-c3ccncc3)n2)cc1Br
3,< 500,CCOC(=O)c1cc(-c2csc(CSc3ccccc3)n2)c(=O)[nH]c1C
4,< 500,CCOC(=O)c1cc(-c2csc(-c3ccnc(NCC4CCCC4)c3)n2)c(=O)[nH]c1C
5,< 500,CCc1ccc(-c2csc(-c3ccncc3)n2)c(=O)[nH]1
6,< 500,CCN(CC)CCCOC(=O)c1cc(-c2csc(-c3ccncc3)n2)c(=O)[nH]c1C(C)C
7,< 500,CCOC(=O)c1cc(-c2csc(CS(=O)(=O)c3cccs3)n2)c(=O)[nH]c1CC
8,< 500,CC(C)c1ccc(-c2csc(-c3ccncc3)n2)c(=O)[nH]1
9,< 500,CCOC(=O)c1cc(-c2csc(-c3ccnc(NCC4CC4)c3)n2)c(=O)[nH]c1C
10,< 500,Cc1[nH]c(=O)c(-c2csc(-c3ccnc(NCC4CC4)c3)n2)cc1C(=O)NCC1CC1
11,< 500,CCc1[nH]c(=O)c(-c2csc(-c3ccncc3)n2)cc1C(=O)OCCCN(CC)CC
12,< 500,CCOC(=O)c1cc(-c2csc(-c3ccnc(NCc4ccccn4)c3)n2)c(=O)[nH]c1C
13,< 500,CCOC(=O)c1cc(-c2csc(NC)n2)c(=O)[nH]c1C
14,< 500,CCOC(=O)c1cc(-c2csc(-c3ccnc(NCC(N)=O)c3)n2)c(=O)[nH]c1C
15,< 500,CCOC(=O)c1cc(-c2csc(-c3ccnc(NCc4ccco4)c3)n2)c(=O)[nH]c1C
16,< 500,CCOC(=O)c1cc(-c2csc(CS(=O)(=O)c3ccc(Cl)cc3)n2)c(=O)[nH]c1C
17,< 500,CCCc1[nH]c(=O)c(-c2csc(-c3ccncc3)n2)cc1C(=O)OCC
18,< 500,CCOC(=O)c1cc(-c2csc(CS(=O)(=O)c3ccccc3)n2)c(=O)[nH]c1COCc1ccccc1
19,< 500,CCOC(=O)c1cc(-c2csc(CS(=O)(=O)c3ccccn3)n2)c(=O)[nH]c1C
20,< 500,CCOC(=O)c1cc(-c2csc(CS(=O)(=O)c3cccs3)n2)c(=O)[nH]c1C
21,< 500,CCOC(=O)c1cc(-c2csc(-c3c(Cl)cncc3Cl)n2)c(=O)[nH]c1C
22,< 500,CCc1[nH]c(=O)c(-c2csc(-c3ccncc3)n2)cc1C(=O)OCCN1CCCC1
23,< 500,CCOC(=O)c1cc(-c2csc(-c3ccncc3)n2)c(=O)[nH]c1COCc1ccccc1
24,< 500,CCOC(=O)c1cc(-c2csc(-c3ccnc(NCc4cccnc4)c3)n2)c(=O)[nH]c1C
25,< 500,CCOC(=O)c1cc(-c2csc(-c3ccnc(NCCNC(C)C)c3)n2)c(=O)[nH]c1C

row,IC50 [nM],SMILES
1,< 500,CCOC(=O)c1cc(-c2csc(-c3ccnc(NC)c3)n2)c(=O)[nH]c1C(C)C
2,< 500,CCOC(=O)c1cc(-c2csc(-c3ccnc(Cl)c3)n2)c(=O)[nH]c1C
3,< 500,Cc1[nH]c(=O)c(-c2csc(-c3ccncc3)n2)cc1C(=O)OC(C)(C)C
4,< 500,CCCc1[nH]c(=O)c(-c2csc(CS(=O)(=O)c3cccs3)n2)cc1C(=O)OCC
5,< 500,CCOC(=O)c1cc(-c2csc(-c3ccnc(NCCN(CC)CC)c3)n2)c(=O)[nH]c1C
6,< 500,CCOC(=O)c1cc(-c2csc(-c3ccnc(NCc4ccccc4)c3)n2)c(=O)[nH]c1C
7,< 500,CCOC(=O)c1cc(-c2csc(-c3ccnc(NCCNC(C)=O)c3)n2)c(=O)[nH]c1C
8,< 500,CCOC(=O)c1cc(-c2csc(CS(=O)(=O)c3cccs3)n2)c(=O)[nH]c1C(C)C
9,< 500,CCOC(=O)c1cc(-c2csc(CS(=O)(=O)Cc3ccc(F)cc3)n2)c(=O)[nH]c1C
10,< 500,CCOC(=O)c1cc(-c2csc(-c3ccncc3)n2)c(=O)[nH]c1C
11,< 500,CCCCNc1cc(-c2nc(-c3cc(C(=O)OCC)c(C)[nH]c3=O)cs2)ccn1
12,< 500,CCOC(=O)c1cc(-c2csc(CS(=O)(=O)c3ccccc3)n2)c(=O)[nH]c1C1CC1
13,< 500,Cc1[nH]c(=O)c(-c2csc(-c3ccnc(NCc4ccccn4)c3)n2)cc1C(=O)NCc1ccccn1
14,< 500,CCOC(=O)c1cc(-c2csc(-c3ccnc(NCC(C)C)c3)n2)c(=O)[nH]c1C
15,< 500,CCOC(=O)c1cc(-c2csc(-c3ccnc(NCCc4cccs4)c3)n2)c(=O)[nH]c1C
16,< 500,CCOC(=O)c1cc(-c2csc(-c3ccncc3)n2)c(=O)[nH]c1CC
17,< 500,CCCc1[nH]c(=O)c(-c2csc(CS(=O)(=O)c3ccccc3)n2)cc1C(=O)OCC
18,< 500,CCOC(=O)c1cc(-c2csc(-c3ccnc(NC)c3)n2)c(=O)[nH]c1C
19,< 500,CCOC(=O)c1cc(-c2csc(C(C)(C)S(=O)(=O)c3ccccc3)n2)c(=O)[nH]c1C
20,< 500,CCOC(=O)c1cc(-c2csc(CS(=O)(=O)c3ccccc3)n2)c(=O)[nH]c1C(C)C
21,< 500,CCOC(=O)c1cc(-c2csc(-c3ccncc3)n2)c(=O)[nH]c1C(C)C
22,< 500,CCOC(=O)c1cc(-c2csc(-c3ccnc(N)c3)n2)c(=O)[nH]c1C
23,< 500,CCOC(=O)c1cc(-c2csc(CS(=O)(=O)c3ccccc3)n2)c(=O)[nH]c1C
24,< 500,CCOC(=O)c1cc(-c2csc(CS(=O)(=O)c3ccccc3)n2)c(=O)[nH]c1CC
